By IC50 is commonly meant the concentration at which inhibition is half-maximal.

Drawing on patent US20250018049A1, “COMPOUNDS FOR DEGRADING CYCLIN-DEPENDENT KINASE 2 VIA UBIQUITIN PROTEOSOME PATHWAY” (NIKANG THERAPEUTICS, INC., priority 2020, published 2025), this text covers IC50 and Dmax for 12 compounds.

Common to all, as to type: cell-based
Experiment [1] addresses T1, CDK2 (Homo sapiens, UniProt P24941). Briefly: NanoBRET CDK2 engagement assay. Also on record: expressed in transfected cells. The note with it: OVCAR3 cells with stable CDK2-Luciferase vector, 24 hours treatment. An outline of the steps:
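OVCAR3 cells stably expressing CDK2-luciferase, in Opti-MEM with 1% FBS, treated 24 h at 37° C with compound from 3 μM in ½-log steps to 0.3 nM; NanoBRET tracer present for final 2 h. Donor/acceptor emission read; engagement normalized to DMSO as 100% signal, IC50 by curve fit.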
In general terms: In BRET a luciferase serves as donor, and the signal depends on an acceptor being close.

Experiment [2] concerns the target T1, CDK2. In words: Phospho-Rb HTRF measurement in OVCAR3 cells (inhibition of CDK2). Also noted: High-Throughput Measurement of Cellular Endogenous CDK2; endogenous in cells; host or cells: OVCAR3. The note with it: pRB(S807/811) assay, 24 h compound treatment.
Experiment [3] concerns the target T1, CDK2. In words: CDK2 HTRF assay (cellular endogenous CDK2 level). Also on record: High-Throughput Measurement of Cellular Endogenous CDK2; endogenous in cells; host or cells: OVCAR3. The note with it: OVCAR-3; OVCAR3 cells, 24 hours, 0.3 to 10,000 nM; read-out: max degradation of CDK2. The procedure: Effects of compounds on cellular CDK2 level can be monitored by a high-throughput HTRF assay or traditional Western Blot assay.
To determine half maximal degradation concentration (DC50) values of compounds, cellular CDK2 level was measured in 96-well format using HTRF total CDK2 cellular kit (Cat #64CDK2TPEG) from Cisbio.
On Day 1, OVCAR3 cells were seeded into 96-well tissue-culture treated plates at 20,000 cells/well in 200 μL and incubated overnight at 37° C. in CO2 atmosphere. On Day 2 cells were treated with compounds at concentration ranging from 0.3 to 10,000 nM using HP D300 digital dispenser. 24 hours after compound treatment, cell culture media was removed by flicking the plate and tapping the plate against clean paper towel. Immediately 30 μL 1× lysis buffer was supplemented from the kit and the plate was incubated at room temperature on shaker for 30 min. After homogenization by pipetting up and down, 8 μL cell lysate from 96-well cell culture plate was transferred to 384-well small volume white detection plate. 2 μL premixed detection solution was added and the plate was covered with sealer. To prepare the detection solution, d2 conjugated-CDK2 antibody and Eu-cryptate conjugated CDK2 antibody were diluted into detection buffer following manufacturer's instruction. Detection plates were incubated overnight at room temperature and read on ClarioStar (BMG Labtech) in TR-FRET mode (665 nM and 620 nM). The TR-FRET ratio (665 nM/620 nM) was plotted against the compound concentration and normalized to DMSO controls. Half maximal degradation concentration (DC50) values were calculated with a four-parameter logistic fit using GraphPad Prism (version 8; La Jolla, CA). FIG. 1 provides a dose-response curve of Compound 1 in Compound Table I in cellular CDK2 HTRF assay. IC50 in FIG. 1 is the same as DC50. Compounds 1, 13, 16, 22, 23, 28, 34, 35, 36, 37, 38, 39, 42, 48, 50, 51, 53, 54, 55, 56, 57, 58, 59, 60, 61, 62, 63, 65, 66, 68, 69, 70 were tested and max degradation of CDK2 observed was from about 35% to about 90%.

Take `O=C1CCC(N2Cc3cc(N4CC5CCC(C4)N5Cc4cccc(S(=O)(=O)N5CCC(Nc6ncc7ccc(=O)n(C8CCCC8)c7n6)CC5)c4)ccc3C2=O)C(=O)N1` (stereo not drawn) [Compound 54, 3-(5-(8-(3-((4-((8-cyclopentyl-7-oxo-7,8-dihydro-pyrido[2,3-d]pyrimidin-2-yl)amino)piperidin-1-yl)sulfonyl)benzyl)-3,8-diazabicyclo[3.2.1]octan-3-yl)-1-oxoisoindolin-2-yl)piperidine-2,6-dione]: the half-inhibitory concentration (IC50) was found to be 0.214 µM against CDK2 [1] and 0.0725 µM against CDK2 [2]. The Dmax at CDK2 [3] lay within 35 to 90%.
`CC1(O)CCCC1n1c(=O)ccc2cnc(NC3CCN(S(=O)(=O)c4cccc(CN5CCN(c6ccc7c(c6)CN(C6CCC(=O)NC6=O)C7=O)CC5)c4)CC3)nc21` (stereo not drawn) [Compound 55, 3-(5-(4-(3-((4-((8-(2-hydroxy-2-methyl-cyclopentyl)-7-oxo-7,8-dihydropyrido[2,3-d]-pyrimidin-2-yl)amino)piperidin-1-yl)sulfonyl)-benzyl)piperazin-1-yl)-1-oxoisoindolin-2-yl)-piperidine-2,6-dione]: the values for the IC50 on CDK2 [1] and on CDK2 [2] were 0.736 µM and 0.07 µM, respectively. The Dmax at CDK2 [3] was in the range of 35 to 90%.
Consider `O=C1CCC(N2Cc3cc(N4CCN(Cc5cccc(S(=O)(=O)N6CCC(Nc7ncc8cc(C(F)F)c(=O)n(C9CCCC9)c8n7)CC6)c5)CC4)ccc3C2=O)C(=O)N1` (stereo not drawn) [Compound 56, 3-(5-(4-(3-((4-((8-cyclopentyl-6-(difluoromethyl)-7-oxo-7,8-dihydropyrido[2,3-d]pyrimidin-2-yl)amino)piperidin-1-yl)sulfonyl)benzyl)piperazin-1-yl)-1-oxoisoindolin-2-yl)piperidine-2,6-dione], for which the IC50 on CDK2 [1] stood at 0.241 µM; against CDK2 [2], 0.067 µM. For the same compound, the Dmax at CDK2 [3] lay in the range of 35 to 90%.
For `O=C1CCC(N2Cc3cc(N4CCC5(CC4)CN(Cc4cccc(S(=O)(=O)N6CCC(Nc7ncc8ccc(=O)n(C9CCCC9)c8n7)CC6)c4)C5)ccc3C2=O)C(=O)N1` (stereo not drawn) [Compound 57, 3-(5-(2-(3-((4-((8-cyclopentyl-7-oxo-7,8-dihydro-pyrido[2,3-d]pyrimidin-2-yl)amino)piperidin-1-yl)sulfonyl)benzyl)-2,7-diazaspiro[3.5]nonan-7-yl)-1-oxoisoindolin-2-yl)piperidine-2,6-dione], the results for the IC50 on CDK2 [1] and against CDK2 [2] were 0.169 µM and 0.0496 µM, respectively. In addition, at CDK2 [3], the Dmax lay in the range of 35 to 90%.
Consider `O=C1CCC(N2Cc3cc(N4CC5(CCN(Cc6cccc(S(=O)(=O)N7CCC(Nc8ncc9ccc(=O)n(C%10CCCC%10)c9n8)CC7)c6)CC5)C4)ccc3C2=O)C(=O)N1` (stereo not drawn) [Compound 58, 3-(5-(7-(3-((4-((8-cyclopentyl-7-oxo-7,8-dihydropyrido[2,3-d]pyrimidin-2-yl)amino)-piperidin-1-yl)sulfonyl)benzyl)-2,7-diazaspiro-[3.5]nonan-2-yl)-1-oxoisoindolin-2-yl)piperidine-2,6-dione], for which the IC50 came out at 0.291 µM on CDK2 [1] and 0.155 µM against CDK2 [2]. For the same compound, the Dmax at CDK2 [3] was in the range of 35 to 90%.
Take `O=C1CCC(N2Cc3cc(N4CCC5(CCN(Cc6cccc(S(=O)(=O)N7CCC(Nc8ncc9ccc(=O)n(C%10CCCC%10)c9n8)CC7)c6)CC5)CC4)ccc3C2=O)C(=O)N1` (stereo not drawn) [Compound 59, 3-(5-(9-(3-((4-((8-cyclopentyl-7-oxo-7,8-dihydro-pyrido[2,3-d]pyrimidin-2-yl)amino)piperidin-1-yl)sulfonyl)benzyl)-3,9-diazaspiro[5.5]undecan-3-yl)-1-oxoisoindolin-2-yl)piperidine-2,6-dione]: the half-maximal inhibitory concentration (IC50) on CDK2 [1] was found to be 0.18 µM; at CDK2 [2] it was 0.0482 µM. Moreover, at CDK2 [3], the Dmax was in the range of 35 to 90%.
In the case of `O=C1CCC(N2Cc3cc(N4CC5(CN(Cc6cccc(S(=O)(=O)N7CCC(Nc8ncc9ccc(=O)n(C%10CCCC%10)c9n8)CC7)c6)C5)C4)ccc3C2=O)C(=O)N1` (stereo not drawn) [Compound 60, 3-(5-(6-(3-((4-((8-cyclopentyl-7-oxo-7,8-dihydro-pyrido[2,3-d]pyrimidin-2-yl)amino)piperidin-1-yl)sulfonyl)benzyl)-2,6-diazaspiro[3.3]heptan-2-yl)-1-oxoisoindolin-2-yl)piperidine-2,6-dione], the half-maximal inhibitory concentration (IC50) came out at 0.0645 µM on CDK2 [1] and 0.03 µM at CDK2 [2]. The Dmax at CDK2 [3] was in the range of 35 to 90%.
For `O=C1CCC(N2Cc3cc(N4CC5(CN(Cc6cccc(S(=O)(=O)N7CCC(Nc8ncc9ccc(=O)n(C%10CC%11CC%11C%10)c9n8)CC7)c6)C5)C4)ccc3C2=O)C(=O)N1` (stereo not drawn) [Compound 61, 3-(5-(6-(3-((4-((8-(bicyclo[3.1.0]hexan-3-yl)-7-oxo-7,8-dihydropyrido[2,3-d]pyrimidin-2-yl)amino)piperidin-1-yl)sulfonyl)benzyl)-2,6-diazaspiro[3.3]heptan-2-yl)-1-oxoisoindolin-2-yl)piperidine-2,6-dione], the figures for the IC50 on CDK2 [1] and against CDK2 [2] were 0.327 µM and 0.0707 µM, respectively. In addition, at CDK2 [3], the Dmax lay within 35 to 90%.
Take `O=C1CCC(N2Cc3cc(N4CC5(CN(Cc6cccc(S(=O)(=O)N7CCC(Nc8ncc9ccc(=O)n(C%10%11CC(C%10)C%11)c9n8)CC7)c6)C5)C4)ccc3C2=O)C(=O)N1` (stereo not drawn) [Compound 62, 3-(5-(6-(3-((4-((8-(bicyclo[1.1.1]pentan-1-yl)-7-oxo-7,8-dihydropyrido[2,3-d]pyrimidin-2-yl)-amino)piperidin-1-yl)sulfonyl)benzyl)-2,6-diazaspiro[3.3]heptan-2-yl)-1-oxoisoindolin-2-yl)-piperidine-2,6-dione]: the half-inhibitory concentration (IC50) against CDK2 [1] was determined as 0.284 µM; against CDK2 [2] it was 0.0218 µM. Also, the Dmax at CDK2 [3] was in the range of 35 to 90%.
As for `O=C1CCC(N2C(=O)c3cc(F)c(N4CCN(Cc5cccc(S(=O)(=O)N6CC[C@H](Nc7ncc8ccc(=O)n(C9CCCC9)c8n7)[C@H](F)C6)c5)CC4)cc3C2=O)C(=O)N1` (stereo partly drawn) [Compound 63, 5-(4-(3-(((3R,4S)-4-((8-cyclopentyl-7-oxo-7,8-dihydropyrido[2,3-d]pyrimidin-2-yl)amino)-3-fluoropiperidin-1-yl)sulfonyl)benzyl)piperazin-1-yl)-2-(2,6-dioxopiperidin-3-yl)-6-fluoroiso-indoline-1,3-dione], the IC50 against CDK2 [1] amounted to 0.265 µM; against CDK2 [2], 0.18 µM. The Dmax at CDK2 [3] is 35 to 90%.
With `O=C1CCC(N2C(=O)c3cc(F)c(N4CCN(Cc5cccc(S(=O)(=O)N6CC[C@H](Nc7ncc8ccc(=O)n(C9CCCC9)c8n7)[C@@H](F)C6)c5)CC4)cc3C2=O)C(=O)N1` (stereo partly drawn) [Compound 65, 5-(4-(3-(((3S,4S)-4-((8-cyclopentyl-7-oxo-7,8-dihydropyrido[2,3-d]pyrimidin-2-yl)amino)-3-fluoropiperidin-1-yl)sulfonyl)benzyl)piperazin-1-yl)-2-(2,6-dioxopiperidin-3-yl)-6-fluoro-isoindoline-1,3-dione], the IC50 against CDK2 [1] stood at 1.75 µM; against CDK2 [2], 6.44 µM. Besides, the Dmax on CDK2 [3] was in the range of 35 to 90%.
As for `O=C1CCC(N2Cc3cc(CN4CCC(Oc5cccc(S(=O)(=O)N6CCC(Nc7ncc8ccc(=O)n(C9CCCC9)c8n7)CC6)c5)CC4)ccc3C2=O)C(=O)N1` (stereo not drawn) [Compound 66, 3-(5-((4-(3-((4-((8-cyclopentyl-7-oxo-7,8-dihydropyrido[2,3-d]pyrimidin-2-yl)amino)-piperidin-1-yl)sulfonyl)phenoxy)-piperidin-1-yl)-methyl)-1-oxoisoindolin-2-yl)piperidine-2,6-dione], the values for the IC50 on CDK2 [1] and against CDK2 [2] were 0.046 µM and 0.107 µM, respectively. Also, the Dmax on CDK2 [3] is 35 to 90%.
